{
  "source": "the SangsterLogP compilation",
  "data": [
    {"experiment": "method code SF-AS, from DOI: 10.1016/0006-2952(66)90048-7", "conditions": "not given", "values": [
      {"smiles": "O=C(NC(=O)c1ccc(O)cc1O)c1ccc(O)cc1O", "logP": 0.86},
      {"smiles": "O=C(NC(=O)c1ccccc1O)c1ccccc1O", "logP": 1.92},
      {"smiles": "NC(=O)c1c(O)cccc1O", "logP": 0.6},
      {"smiles": "O=C(O)c1ccccc1NC(=O)c1c(O)cccc1O", "logP": 0.32},
      {"smiles": "O=C(Nc1ccccc1C(=O)O)c1ccccc1O", "logP": 0.74},
      {"smiles": "NC(=O)c1ccc(O)cc1O", "logP": -0.15},
      {"smiles": "CC(=O)Oc1cccc(OC(C)=O)c1C(N)=O", "logP": -0.62},
      {"smiles": "O=C(NC(=O)c1c(O)cccc1O)c1c(O)cccc1O", "logP": 1.15},
      {"smiles": "O=C(NC(=O)c1ccccc1O)c1ccccc1", "logP": 1.38}
    ]},
    {"experiment": "method code SF-AS, from DOI: 10.1016/0006-2952(66)90048-7", "conditions": "pH 7.0", "values": [
      {"smiles": "NC(=O)c1ccccc1O", "logD": 0.89},
      {"smiles": "O=C(Nc1ccccc1)c1c(O)cccc1O", "logD": 1.43}
    ]}
  ]
}
